The results in this text go back to US20260108483A1, “METHODS AND COMPOSITIONS FOR PREVENTING THE PROGRESSION OF DIABETIC RETINOPATHY AND RELATED CONDITIONS” (Opus Genetics, Inc., priority 2023, published 2026).

Structures are written as SMILES.

In this experiment the test system is diabetic retinopathy (moderately severe to severe NPDR or mild PDR). In words: Phase 2 placebo-controlled clinical study: three or more step worsening in binocular Diabetic Retinopathy Severity Scale Score. It is filed as in vivo, human. To be noted: weeks 12 and 24; 600 mg/day oral (3+2 tablets of 120 mg) vs placebo. The text has this: Ability of Compound 1 to prevent the progression of non-proliferative diabetic retinopathy (NPDR) and mild proliferative diabetic retinopathy (PDR) may be evaluated according to a clinical study in which Compound 1 was orally administered to patients suffering from non-proliferative diabetic retinopathy or mild proliferative diabetic retinopathy. Compound 1 has the chemical name (E)-2-((4,5-dimethoxy-2-methyl-3,6-dioxocyclohexa-1,4-dien-1-yl)methylene)undecanoic acid, and is depicted by the following chemical formula: The study was configured as a placebo-controlled, double-masked, randomized, Phase 2 study in approximately 100 subjects with moderately severe to severe NPDR (diabetic retinopathy severity score [DRSS] Level 47 or 53, see FIG. 1) or mild PDR (DRSS Level 61), evaluating safety and efficacy following administration of Compound 1 twice daily for 24 weeks. The study was configured for a 1:1 randomization (placebo: Compound 1). Randomization was stratified by level of disease severity (NPDR or PDR). Subjects with mild PDR were capped at 20% for each arm. Efficacy evaluations at 12 and/or 24 weeks included DRSS, center-involved diabetic macular edema (DME), moderate PDR or PDR-related adverse events (AEs), best-corrected visual acuity (BCVA), and central subfield thickness (CST). Further experimental procedures and results are described below. […]

As to `CCCCCCCCC/C(=C\C1=C(C)C(=O)C(OC)=C(OC)C1=O)C(=O)O` [Compound 1, (E)-2-((4,5-dimethoxy-2-methyl-3,6-dioxocyclohexa-1,4-dien-1-yl)methylene)undecanoic acid], the “preventing the progression of diabetic retinopathy (patients with three or more step worsening in binocular DRSS, FIG. 3)” value is given as “effective in preventing the progression of diabetic retinopathy”.
